Measurements from PMC4951311 (Oncotarget, 2016).
Entries after “also recorded” stand apart in the source; their conditions may differ. Where a name gives a salt, the structure may show the parent alone.

Experiments:
Assay type in all cases: in vivo, human
[1] = Steady-state plasma pharmacokinetics of enzastaurin and metabolites in native Chinese cancer patients (LC-MS/MS, noncompartmental)
Experimental: Then, the study drug ceased for three days (days 15 to 17) and resumed on day 18, after the last PK sample was obtained. During the study, dosing occurred at approximately the same time of day for each individual patient.
Nominal collection times were day 14 predose and 1, 2, 4, 6, 8, 10, 24, 48, 72, and 96 h postdose. […] The actual sampling time was accurately recorded for analysis.
Pharmacokinetic parameters were calculated using noncompartmental methods of analysis using WinNonlin (Pharsight Corp., Cary, NC, USA). […] Total plasma analyte AUCτ, ss and Cav ss were calculated by summing the respective AUCτ, ss or Cav, ss estimates for each of the 4 individual analytes. Total plasma analyte Cmax was reported as the highest sum of individual analyte concentrations at any given sampling time during a concentration-time profile, not the sum of the Cmax of each analyte. […] The AUC was calculated by a combination of linear and logarithmic trapezoidal methods. The linear trapezoidal method was employed up to tmax, and the log trapezoidal method was then used for data after tmax. PK measurements were calculated based on the actual collection times. Patients with insufficient data were excluded from the analysis.

[2] = Safety: adverse events graded by CTCAE v3.0 in native Chinese cancer patients
Experimental: Eligibility assessments, which consisted of a complete medical history, physical examination, ECOG performance status, vital sign measurements, concomitant drugs, ECG, laboratory tests, one or more relevant radiologic test(s) for tumor measurement (computed tomography scan, magnetic resonance imaging, X-ray, or bone scan) and tumor measurement of palpable or visible lesions, were conducted within 28 days before the lead-in day. Lead-in day (within 7 days before treatment initiation) assessments included physical examination, ECOG performance status, vital sign measurements, concomitant drugs, ECG (at 0 and 4 h) and laboratory tests.
ECGs were performed 4 h after treatment on days 1 and 2. Patients received the same assessments on day 14 as on the lead-in day, except that ECGs were performed predose (0 h) and 4 h postdose. Blood samples for PK were collected from days 14 to 18. After retreatment for 2 to 4 weeks from day 18, patients were re-evaluated to determine whether they should continue in the safety extension phase or washout prior to withdrawal from the study.
(§1) All patients who entered the safety extension phase were evaluated with a physical examination, vital signs, laboratory tests, concomitant drugs, ECG at a 4-week follow-up visit, tumor measurements and imaging studies at 4- to 8-week intervals.
(§2) All observed AEs were graded using the CTCAE, version 3.0 (NCI 2003). Imaging studies of involved disease sites were repeated every 4 to 8 weeks in patients who entered the safety extension phase. All lesion assessments, whether by physical examination or radiologic methods, were repeated by the same methods at least 4 weeks following the initial observation of an objective response for response confirmation. Responses were recorded based on Response Evaluation Criteria in Solid Tumors, version 1.0 (RECIST 1.0), and Revised Response Criteria for Malignant Lymphoma.

[3] = system: refractory solid tumors and lymphoma; experiment: Anti-tumor response (RECIST 1.0 / Revised Response Criteria for Malignant Lymphoma), safety extension phase
Experimental: as §1, §2

[4] = of 9 non-Hodgkin lymphoma patients
[5] = of 10 evaluated lymphoma patients

SMILES: Cn1cc(C2=C(c3cn(C4CCN(Cc5ccccn5)CC4)c4ccccc34)C(=O)NC2=O)c2ccccc21 [enzastaurin, Enzastaurin monohydrochloride]
- Cav, ss ([1]; 500 mg orally once daily, steady state, geometric mean (% CV), N = 23): 1,210 nmol/L
- Cav, ss ([1]; 500 mg orally once daily, steady state, geometric mean (% CV), N = 23, listed as Enzastaurin): 1210 (128) nmol/L
- Cmax ([1]; human, plasma, po, 500 mg): 2370 nM
- Tmax ([1]; human, plasma, po, 500 mg, 500 mg orally once daily, steady state, median and range, N = 23): ≤ 4 h
- AUC ([1]; human, plasma, po, 500 mg orally once daily, steady state, one dosing interval, geometric mean (% CV), N = 23): 29.1 µM·h
- half-life ([1]; human, plasma, po, 500 mg orally once daily, washout days 15-17, geometric mean and range, N = 21): 14 h
- Tolerability ([2]; 500 mg daily, Chinese patients): well tolerated with minimal toxicity
- Deaths or serious adverse events during the study ([2]; 500 mg once daily): No deaths or other serious adverse events; also recorded: Neither drug-related deaths nor serious AEs were reported
- Discontinuation because of an AE ([2]; 500 mg once daily): No patients discontinued because of an AE; also recorded: No patient withdrew from the study because of toxicity
- Patients reporting at least 1 AE (percent) ([2]; PK phase): 80%
- Patients reporting at least 1 AE, drug related ([2]; PK phase): 14
- Patients reporting at least 1 AE ([2]; PK phase, 25 patients treated): 20 patients
- Number of patients with drug-related abdominal pain, grade 0 ([2]; maximum grade 0, n = 25): 22
- Number of patients with drug-related anemia, grade 0 ([2]; maximum grade 0, n = 25): 24
- Number of patients with drug-related chromaturia, grade 0 ([2]; maximum grade 0, n = 25): 22
- Number of patients with drug-related diarrhea, grade 0 ([2]; maximum grade 0, n = 25): 24
- Number of patients with drug-related fatigue, grade 0 ([2]; maximum grade 0, n = 25): 24
- Number of patients with drug-related increased ALT, grade 0 ([2]; maximum grade 0, n = 25): 22
- Number of patients with drug-related increased AST, grade 0 ([2]; maximum grade 0, n = 25): 23
- Number of patients with drug-related insomnia, grade 0 ([2]; maximum grade 0, n = 25): 24
- Number of patients with drug-related leukopenia, grade 0 ([2]; maximum grade 0, n = 25): 23
- Number of patients with drug-related lymphocytopenia, grade 0 ([2]; maximum grade 0, n = 25): 23
- Number of patients with drug-related nausea, grade 0 ([2]; maximum grade 0, n = 25): 24
- Number of patients with drug-related neutropenia, grade 0 ([2]; maximum grade 0, n = 25): 24
- Number of patients with drug-related thrombocytopenia, grade 0 ([2]; maximum grade 0, n = 25): 24
- Number of patients with drug-related QT prolongation, grade 0 ([2]; maximum grade 0, n = 25, 500 mg daily): 21
- Number of patients with drug-related abdominal pain, grade 1 ([2]; maximum grade 1, n = 25): 3
- Number of patients with drug-related anemia, grade 1 ([2]; maximum grade 1, n = 25): 1
- Number of patients with drug-related chromaturia, grade 1 ([2]; maximum grade 1, n = 25): 3
- Number of patients with drug-related fatigue, grade 1 ([2]; maximum grade 1, n = 25): 1
- Number of patients with drug-related increased ALT, grade 1 ([2]; maximum grade 1, n = 25): 3
- Number of patients with drug-related increased AST, grade 1 ([2]; maximum grade 1, n = 25): 2
- Number of patients with drug-related leukopenia, grade 1 ([2]; maximum grade 1, n = 25): 1
- Number of patients with drug-related lymphocytopenia, grade 1 ([2]; maximum grade 1, n = 25): 1
- Number of patients with drug-related nausea, grade 1 ([2]; maximum grade 1, n = 25): 1
- Number of patients with drug-related neutropenia, grade 1 ([2]; maximum grade 1, n = 25): 1
- Number of patients with drug-related thrombocytopenia, grade 1 ([2]; maximum grade 1, n = 25): 1
- Number of patients with drug-related QT prolongation, grade 1 ([2]; maximum grade 1, n = 25, 500 mg daily): 1
- Number of patients with drug-related diarrhea, grade 2 ([2]; maximum grade 2, n = 25): 1
- Number of patients with drug-related insomnia, grade 2 ([2]; maximum grade 2, n = 25): 1
- Number of patients with drug-related leukopenia, grade 2 ([2]; maximum grade 2, n = 25): 1
- Number of patients with drug-related lymphocytopenia, grade 2 ([2]; maximum grade 2, n = 25): 1
- Number of patients with drug-related QT prolongation, grade 2 ([2]; maximum grade 2, n = 25, 500 mg daily): 2
- Number of patients with drug-related QT prolongation, grade 3 ([2]; maximum grade 3, n = 25, 500 mg daily): 1
- Patients who experienced grade 3 AEs ([2]; regardless of causality, CTCAE): 7 patients
- Patients who experienced a grade 4 AE ([2]; regardless of causality, neutropenia considered caused by leukemia): 1
- Patients reporting at least 1 AE (percent) ([2]; safety extension phase): 53.3%
- Patients reporting at least 1 AE, drug related ([2]; safety extension phase): 5
- Patients reporting at least 1 AE ([2]; safety extension phase, 15 patients): 8 patients
- NHL patients who achieved a partial response [3, 4]: 1
- NHL patients who achieved stable disease [3, 4]: 4
- NHL patients with complete response on enzastaurin maintenance therapy after salvage chemotherapy [3, 4]: 1
- Lymphoma patients with progressive disease [3, 5]: three
- Lymphoma patients with stable disease [3, 5]: five
- Duration of stable disease ([3]; one Hodgkin lymphoma patient): 22.1 months
- Duration of stable disease ([3]; one follicular lymphoma patient): 25.2 months
- Duration of partial response ([3]; one patient with relapsed DLBCL): 8.1 months
- Disease-free time on enzastaurin after complete response following salvage chemotherapy ([3]; one patient with relapsed DLBCL, still on drug at last follow-up): 30 months
- Activity in advanced/metastatic solid tumors ([3]; overall judgement): poor activity
- Efficacy against lymphoma ([3]; overall judgement): limited efficacy
- Time of treatment at which partial response was observed ([3]; relapsed DLBCL patient, PET-CT): 1.8 months
